In ChEMBL document CHEMBL5537115, “New broad-spectrum and potent antibacterial agents with dual-targeting mechanism: Promoting FtsZ polymerization and disrupting bacterial membranes” (Eur J Med Chem, 2024):
In brackets after ≈: the same amount, converted by molar mass.

Tests used:
Format in all cases: functional
Enterococcus faecalis [1] = test: Antibacterial activity against vancomycin-resistant Enterococcus faecalis ATCC51299 assessed as bacterial growth inhibition incubated for 20 hrs by CLSI based broth microdilution method
Staphylococcus aureus [2] = test: Antibacterial activity against Staphylococcus aureus clinical isolate assessed as bacterial growth inhibition incubated for 20 hrs by CLSI based broth microdilution method
Staphylococcus aureus [3] = test: Antibacterial activity against erythromycin-susceptible Staphylococcus aureus ATCC25923 assessed as bacterial growth inhibition incubated for 20 hrs by CLSI based broth microdilution method
[4] = system: Staphylococcus epidermidis; test: Antibacterial activity against penicillin-resistant Staphylococcus epidermidis clinical isolate assessed as bacterial growth inhibition incubated for 20 hrs by CLSI based broth microdilution method
Enterococcus faecium [5] = test: Antibacterial activity against vancomycin-susceptible Enterococcus faecium ATCC19434 assessed as bacterial growth inhibition incubated for 20 hrs by CLSI based broth microdilution method
Streptococcus pyogenes [6] = test: Antibacterial activity against erythromycin-resistant Streptococcus pyogenes 2 clinical isolate assessed as bacterial growth inhibition incubated for 20 hrs by CLSI based broth microdilution method
Enterococcus faecalis [7] = test: Antibacterial activity against vancomycin-susceptible Enterococcus faecalis ATCC29212 assessed as bacterial growth inhibition incubated for 20 hrs by CLSI based broth microdilution method
Streptococcus pyogenes [8] = test: Antibacterial activity against erythromycin-susceptible Streptococcus pyogenes 1 assessed as bacterial growth inhibition incubated for 20 hrs by CLSI based broth microdilution method
Staphylococcus aureus [9] = test: Antibacterial activity against penicillin-resistant Staphylococcus aureus ATCC31007 assessed as bacterial growth inhibition incubated for 20 hrs by CLSI based broth microdilution method
Escherichia coli [10] = test: Antibacterial activity against penicillin-susceptible Escherichia coli ATCC25922 assessed as bacterial growth inhibition incubated for 20 hrs by CLSI based broth microdilution method
Escherichia coli [11] = test: Antibacterial activity against wild-type Escherichia coli BW25113 assessed as bacterial growth inhibition incubated for 20 hrs by CLSI based broth microdilution method
Staphylococcus aureus [12] = test: Antibacterial activity against methicillin-resistant Staphylococcus aureus ATCC43300 assessed as bacterial growth inhibition incubated for 20 hrs by CLSI based broth microdilution method
Bacillus subtilis = test: Antibacterial activity against penicillin-susceptible Bacillus subtilis ATCC9372 assessed as bacterial growth inhibition incubated for 20 hrs by CLSI based broth microdilution method
Enterococcus faecium [13] = test: Antibacterial activity against vancomycin-resistant Enterococcus faecium ATCC51559 assessed as bacterial growth inhibition incubated for 20 hrs by CLSI based broth microdilution method
Klebsiella pneumoniae = test: Antibacterial activity against Klebsiella pneumoniae ATCC BAA-1902 assessed as bacterial growth inhibition incubated for 20 hrs by CLSI based broth microdilution method
Acinetobacter baumannii = test: Antibacterial activity against Acinetobacter baumannii ATCC19606 assessed as bacterial growth inhibition incubated for 20 hrs by CLSI based broth microdilution method
Bacillus pumilus = test: Antibacterial activity against penicillin-susceptible Bacillus pumilus CMCC63202 assessed as bacterial growth inhibition incubated for 20 hrs by CLSI based broth microdilution method

| SMILES | MIC (Enterococcus faecalis [1]) [µg/mL] | MIC (Staphylococcus aureus [2]) [µg/mL] | MIC (Staphylococcus aureus [3]) [µg/mL] | MIC [4] [µg/mL] | MIC (Enterococcus faecium [5]) [µg/mL] | MIC (Streptococcus pyogenes [6]) [µg/mL] | MIC (Enterococcus faecalis [7]) [µg/mL] | MIC (Streptococcus pyogenes [8]) [µg/mL] | MIC (Staphylococcus aureus [9]) [µg/mL] | MIC (Escherichia coli [10]) [µg/mL] | MIC (Escherichia coli [11]) [µg/mL] | MIC (Staphylococcus aureus [12]) [µg/mL] | MIC (Bacillus subtilis) [µg/mL] | MIC (Enterococcus faecium [13]) [µg/mL] | MIC (Klebsiella pneumoniae) [µg/mL] | MIC (Acinetobacter baumannii) [µg/mL] | MIC (Bacillus pumilus) [µg/mL] |
| --- | --- | --- | --- | --- | --- | --- | --- | --- | --- | --- | --- | --- | --- | --- | --- | --- | --- |
| CCc1ccc(/C=C/c2cc(-c3ccc(C(C)(C)C)cc3)[n+](C)cc2-c2ccccc2C)cc1.[I-] | 1 | 0.5 | 0.125 | 1 | 1 | 4 | 2 | 4 | 1 | 4 | > 64 | 0.5 | 0.5 | 0.5 | 8 | 2 | 1 |
| C[n+]1cc(-c2ccccc2)c(/C=C/c2ccc(N)cc2)cc1-c1ccccc1.[I-] | > 64 | 16 | 2 | 32 | > 64 | 16 | 64 | 4 | 64 | > 64 | > 64 | 16 | 4 | 64 | > 64 | 32 | 16 |
| CC(C)c1ccc(/C=C/c2cc(-c3ccc(C(C)(C)C)cc3)[n+](C)cc2-c2ccccc2)cc1.[I-] | 0.5 | 0.5 | 0.125 | 1 | 1 | 2 | 1 | 4 | 1 | 2 | 4 | 0.25 | 0.125 | 1 | 8 | 1 | 0.25 |
| CCCCCCOc1ccc(/C=C/c2cc(-c3ccccc3)[n+](C)cc2-c2ccccc2)cc1.[I-] | 2 | 0.5 | 0.5 | 2 | 2 | 2 | 2 | 2 | 2 | 4 | 4 | 2 | 0.5 | 1 | 8 | 4 | 0.5 |
| C[n+]1cc(-c2ccccc2)c(/C=C/c2ccc(O)cc2)cc1-c1ccc(C(C)(C)C)cc1.[I-] | 4 | 0.5 | 0.125 | 4 | 4 | 2 | 4 | 2 | 4 | 64 | 64 | 1 | 1 | 4 | > 64 | 8 | 4 |
| CC[C@H]1OC(=O)[C@H](C)[C@@H](O[C@H]2C[C@@](C)(OC)[C@@H](O)[C@H](C)O2)[C@H](C)[C@@H](O[C@@H]2O[C@H](C)C[C@H](N(C)C)[C@H]2O)[C@](C)(O)C[C@@H](C)CN(C)[C@H](C)[C@@H](O)[C@]1(C)O [AZITHROMYCIN] | > 64 | > 64 | 0.25 (≈ 0.334 µM) | > 64 | 8 (≈ 10.7 µM) | > 64 | 1 (≈ 1.34 µM) | 0.03 (≈ 0.0401 µM) | > 64 | 64 (≈ 85.4 µM) | > 64 | > 64 | 0.25 (≈ 0.334 µM) | > 64 | 64 (≈ 85.4 µM) | 2 (≈ 2.67 µM) | 0.5 (≈ 0.668 µM) |
| C[n+]1cc(-c2ccccc2)c(/C=C/c2ccc(O)cc2)cc1-c1ccccc1.[I-] | 64 | 16 | 2 | 16 | 64 | 16 | 64 | 4 | 64 | > 64 | > 64 | 32 | 8 | 64 | 64 | 32 | 32 |
| COc1ccc(/C=C/c2cc(-c3ccccc3)c[n+](C)c2-c2ccccc2)cc1.[I-] | 64 | 4 | 2 | 2 | 64 | 8 | 32 | 4 | 64 | > 64 | > 64 | 16 | 8 | 64 | > 64 | 32 | 32 |
